Laboratory results: ChEMBL document CHEMBL4699397, “Development of potent CPP6-gemcitabine conjugates against human prostate cancer cell line (PC-3)” (RSC Med Chem, 2020)
*1 amine or outer side, *2 acyl side, *3 side chain or, on linkers, in order; H or OH if unused. Where a SMILES comes first, the peptide text is derived from it. The star is where a group is joined. X1 = O=c1nc(N*)ccn1[C@@H]1O[C@H](CO)[C@@H](O)C1(F)F; Suc = O=C(CCC(=O)[*:2])[*:1]

Assays:
BXPC-3 = assay: Cytotoxicity against human BXPC-3 cells assessed as inhibition of cell growth measured after 72 hrs by SRB assay; assay type: functional, cell-based; settings: BXPC-3, 72 h
MCF7 = assay: Cytotoxicity against human MCF7 cells assessed as inhibition of cell growth measured after 72 hrs by MTT assay; assay type: functional, cell-based; settings: MCF7, 72 h
PC-3 = assay: Cytotoxicity against human PC-3 cells assessed as inhibition of cell growth measured after 72 hrs by MTT assay; assay type: functional, cell-based; settings: PC-3, 72 h
[1] = Half life of the compound; assay type: physicochemical

Molecule | IC50 (BXPC-3) | IC50 (MCF7) | IC50 (PC-3) | half-life [1]
CSCC[C@H](NC(=O)[C@@H](NC(=O)[C@@H]1CCCN1C(=O)[C@H](CC(C)C)NC(=O)[C@H](CCCCN)NC(=O)[C@@H](N)Cc1c[nH]c2ccccc12)C(C)C)C(N)=O | > 1000 nM | 223 nM | > 1000 nM | –
CSCC[C@H](NC(=O)[C@@H](NC(=O)[C@@H]1CCCN1C(=O)[C@H](CC(C)C)NC(=O)[C@H](CCCCN)NC(=O)CCC(=O)Nc1ccn([C@@H]2O[C@H](CO)[C@@H](O)C2(F)F)c(=O)n1)C(C)C)C(=O)N[C@@H](Cc1c[nH]c2ccccc12)C(N)=O ({X1-Suc}-KLPVMW-NH2) | 170 nM | 6.9 nM | > 1000 nM | –
CSCC[C@H](NC(=O)[C@@H](NC(=O)[C@@H]1CCCN1C(=O)[C@H](CC(C)C)NC(=O)[C@H](CCCCN)NC(=O)[C@H](Cc1c[nH]c2ccccc12)NC(=O)CCC(=O)Nc1ccn([C@@H]2O[C@H](CO)[C@@H](O)C2(F)F)c(=O)n1)C(C)C)C(N)=O ({X1-Suc}-WKLPVM-NH2) | 180 nM | 5.1 nM | 15 nM | –
CC(C)C[C@H](NC(=O)[C@@H](NC(=O)[C@@H]1CCCN1C(=O)[C@@H](NC(=O)[C@H](Cc1c[nH]c2ccccc12)NC(=O)CCC(=O)Nc1ccn([C@@H]2O[C@H](CO)[C@@H](O)C2(F)F)c(=O)n1)C(C)C)[C@@H](C)O)C(=O)N[C@@H](CCCCN)C(N)=O ({X1-Suc}-WVPTLK-NH2) | 200 nM | 4 nM | 14 nM | –
Nc1ccn([C@@H]2O[C@H](CO)[C@@H](O)C2(F)F)c(=O)n1 [GEMCITABINE] | 130 nM | 1.4 nM | 74 nM | 8 min
CN(C)C(=N)NC(=N)N [METFORMIN] | – | 9.9 nM | 189 nM | –
CC/C(=C(\c1ccccc1)c1ccc(OCCN(C)C)cc1)c1ccccc1 [TAMOXIFEN] | – | – | > 1000 nM | –
H-KLPVMW-NH2 | > 1000 nM | > 1000 nM | > 1000 nM | –
H-WVPTLK-NH2 | > 1000 nM | > 1000 nM | > 1000 nM | –
